Experimental data published in PubChem BioAssay (NCI).
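Where inhibition never reached the appropriate level, the endpoint shown equals the highest concentration tested. Otherwise, values were interpolated linearly from a five-concentration, 48-hour dose response in 96-well plates. TGI: concentration producing complete growth inhibition.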

Experiments:
Experiment in all cases: inhibition of tumour cell growth, NCI panel, 48 h
786-0 renal = test system: 786-0 renal
A498 renal = test system: A498 renal
A549 NSCLC = test system: A549 NSCLC
ACHN renal = test system: ACHN renal
CAKI-1 renal = test system: CAKI-1 renal
CCRF-CEM leukemia = test system: CCRF-CEM leukemia
COLO 205 colon = test system: COLO 205 colon
DLD-1 colon = test system: DLD-1 colon
DMS 114 small cell lung = test system: DMS 114 small cell lung
DMS 273 small cell lung = test system: DMS 273 small cell lung
EKVX NSCLC = test system: EKVX NSCLC
HCC-2998 colon = test system: HCC-2998 colon
HCT-116 colon = test system: HCT-116 colon
HCT-15 colon = test system: HCT-15 colon
HL-60(TB) leukemia = test system: HL-60(TB) leukemia
HOP-18 NSCLC = test system: HOP-18 NSCLC
HOP-62 NSCLC = test system: HOP-62 NSCLC
HOP-92 NSCLC = test system: HOP-92 NSCLC
HT29 colon = test system: HT29 colon
IGROV1 ovarian = test system: IGROV1 ovarian
K-562 leukemia = test system: K-562 leukemia
KM12 colon = test system: KM12 colon
KM20L2 colon = test system: KM20L2 colon
LOX IMVI melanoma = test system: LOX IMVI melanoma
LXFL 529 NSCLC = test system: LXFL 529 NSCLC
M14 melanoma = test system: M14 melanoma
M19-MEL melanoma = test system: M19-MEL melanoma
MALME-3M melanoma = test system: MALME-3M melanoma
MOLT-4 leukemia = test system: MOLT-4 leukemia
NCI-H226 lung = test system: NCI-H226 lung
NCI-H23 lung = test system: NCI-H23 lung
NCI-H460 lung = test system: NCI-H460 lung
NCI-H522 lung = test system: NCI-H522 lung
OVCAR-3 ovarian = test system: OVCAR-3 ovarian
OVCAR-4 ovarian = test system: OVCAR-4 ovarian
OVCAR-5 ovarian = test system: OVCAR-5 ovarian
OVCAR-8 ovarian = test system: OVCAR-8 ovarian
RPMI-8226 leukemia = test system: RPMI-8226 leukemia
RXF 393 renal = test system: RXF 393 renal
RXF-631 renal = test system: RXF-631 renal
SF-268 CNS = test system: SF-268 CNS
SF-295 CNS = test system: SF-295 CNS
SF-539 CNS = test system: SF-539 CNS
SK-MEL-2 melanoma = test system: SK-MEL-2 melanoma
SK-MEL-5 melanoma = test system: SK-MEL-5 melanoma
SK-OV-3 ovarian = test system: SK-OV-3 ovarian
SN12C renal = test system: SN12C renal
SNB-19 CNS = test system: SNB-19 CNS
SNB-75 CNS = test system: SNB-75 CNS
SNB-78 CNS = test system: SNB-78 CNS
SR leukemia = test system: SR leukemia
SW-620 colon = test system: SW-620 colon
TK-10 renal = test system: TK-10 renal
U251 CNS = test system: U251 CNS
UACC-257 melanoma = test system: UACC-257 melanoma
UACC-62 melanoma = test system: UACC-62 melanoma
UO-31 renal = test system: UO-31 renal
XF 498 CNS = test system: XF 498 CNS
SK-MEL-28 melanoma = test system: SK-MEL-28 melanoma

COc1ccc(OC)c(NC(=O)CCC/C(CC(=O)c2ccc(O)c(OC)c2)=N\Nc2ccc([N+](=O)[O-])cc2)c1
TGI (786-0 renal): > 100 µM
TGI (A498 renal): > 100 µM
TGI (A549 NSCLC): > 100 µM
TGI (ACHN renal): > 100 µM
TGI (CAKI-1 renal): > 100 µM
TGI (CCRF-CEM leukemia): > 100 µM
TGI (COLO 205 colon): > 100 µM
TGI (DLD-1 colon): > 100 µM
TGI (DMS 114 small cell lung): > 100 µM
TGI (DMS 273 small cell lung): > 100 µM
TGI (EKVX NSCLC): > 100 µM
TGI (HCC-2998 colon): > 100 µM
TGI (HCT-116 colon): > 100 µM
TGI (HCT-15 colon): > 100 µM
TGI (HL-60(TB) leukemia): > 100 µM
TGI (HOP-18 NSCLC): > 100 µM
TGI (HOP-62 NSCLC): > 100 µM
TGI (HOP-92 NSCLC): 85.6 µM
TGI (HT29 colon): > 100 µM
TGI (IGROV1 ovarian): > 100 µM
TGI (K-562 leukemia): > 100 µM
TGI (KM12 colon): > 100 µM
TGI (KM20L2 colon): > 100 µM
TGI (LOX IMVI melanoma): > 100 µM
TGI (LXFL 529 NSCLC): > 100 µM
TGI (M14 melanoma): > 100 µM
TGI (M19-MEL melanoma): > 100 µM
TGI (MALME-3M melanoma): > 100 µM
TGI (MOLT-4 leukemia): > 100 µM
TGI (NCI-H226 lung): > 100 µM
TGI (NCI-H23 lung): > 100 µM
TGI (NCI-H460 lung): > 100 µM
TGI (NCI-H522 lung): > 100 µM
TGI (OVCAR-3 ovarian): > 100 µM
TGI (OVCAR-4 ovarian): > 100 µM
TGI (OVCAR-5 ovarian): > 100 µM
TGI (OVCAR-8 ovarian): > 100 µM
TGI (RPMI-8226 leukemia): > 100 µM
TGI (RXF 393 renal): 78.6 µM
TGI (RXF-631 renal): > 100 µM
TGI (SF-268 CNS): > 100 µM
TGI (SF-295 CNS): > 100 µM
TGI (SF-539 CNS): > 100 µM
TGI (SK-MEL-2 melanoma): > 100 µM
TGI (SK-MEL-5 melanoma): > 100 µM
TGI (SK-OV-3 ovarian): > 100 µM
TGI (SN12C renal): > 100 µM
TGI (SNB-19 CNS): > 100 µM
TGI (SNB-75 CNS): 79 µM
TGI (SNB-78 CNS): > 100 µM
TGI (SR leukemia): > 100 µM
TGI (SW-620 colon): > 100 µM
TGI (TK-10 renal): > 100 µM
TGI (U251 CNS): > 100 µM
TGI (UACC-257 melanoma): > 100 µM
TGI (UACC-62 melanoma): > 100 µM
TGI (UO-31 renal): > 100 µM
TGI (XF 498 CNS): > 100 µM

Cc1cccc(C(C)C)c1NC(=O)CC1C(=O)Nc2ccccc2S1(=O)=O (configuration not stated)
TGI (786-0 renal): 39.5 µM
TGI (A498 renal): > 54.2 µM
TGI (A549 NSCLC): 39.3 µM
TGI (ACHN renal): > 58.2 µM
TGI (CAKI-1 renal): > 50 µM
TGI (CCRF-CEM leukemia): 30.2 µM
TGI (COLO 205 colon): > 100 µM
TGI (DLD-1 colon): > 45.6 µM
TGI (DMS 114 small cell lung): 45.5 µM
TGI (DMS 273 small cell lung): 20.5 µM
TGI (EKVX NSCLC): > 53.8 µM
TGI (HCC-2998 colon): > 56.2 µM
TGI (HCT-116 colon): > 46.9 µM
TGI (HCT-15 colon): 19.5 µM
TGI (HL-60(TB) leukemia): 28.4 µM
TGI (HOP-18 NSCLC): 70.8 µM
TGI (HOP-62 NSCLC): > 100 µM
TGI (HOP-92 NSCLC): 30.7 µM
TGI (HT29 colon): 26.8 µM
TGI (IGROV1 ovarian): > 51 µM
TGI (K-562 leukemia): 10.3 µM
TGI (KM12 colon): 73.9 µM
TGI (KM20L2 colon): 51.5 µM
TGI (LOX IMVI melanoma): > 51.8 µM
TGI (LXFL 529 NSCLC): 35.5 µM
TGI (M14 melanoma): > 64.2 µM
TGI (M19-MEL melanoma): > 57.4 µM
TGI (MALME-3M melanoma): 50.9 µM
TGI (MOLT-4 leukemia): 10.2 µM
TGI (NCI-H226 lung): 49.9 µM
TGI (NCI-H23 lung): 31.3 µM
TGI (NCI-H460 lung): 35.2 µM
TGI (NCI-H522 lung): 31.5 µM
TGI (OVCAR-3 ovarian): 38.5 µM
TGI (OVCAR-4 ovarian): 29 µM
TGI (OVCAR-5 ovarian): > 73.1 µM
TGI (OVCAR-8 ovarian): > 59 µM
TGI (RPMI-8226 leukemia): 23 µM
TGI (RXF 393 renal): 25.8 µM
TGI (RXF-631 renal): > 52.6 µM
TGI (SF-268 CNS): 29.5 µM
TGI (SF-295 CNS): 67.1 µM
TGI (SF-539 CNS): 14.5 µM
TGI (SK-MEL-2 melanoma): > 62 µM
TGI (SK-MEL-28 melanoma): > 56 µM
TGI (SK-MEL-5 melanoma): 46.4 µM
TGI (SK-OV-3 ovarian): > 100 µM
TGI (SN12C renal): > 59.4 µM
TGI (SNB-19 CNS): > 68 µM
TGI (SNB-75 CNS): > 69 µM
TGI (SNB-78 CNS): > 79.3 µM
TGI (SR leukemia): 4.32 µM
TGI (SW-620 colon): 30.4 µM
TGI (TK-10 renal): 70.1 µM
TGI (U251 CNS): > 51.4 µM
TGI (UACC-257 melanoma): > 70.8 µM
TGI (UACC-62 melanoma): > 51.1 µM
TGI (UO-31 renal): 84.4 µM
TGI (XF 498 CNS): > 59.9 µM
